Assays:
[1] = DPPH radical scavenging assay; format: biochemical; conditions: for Antioxidative activity (IC50 mg/mL): DPPH radical scavenging, absorbance at 517 nm, reacted in the dark one hour, repeated three times, Table 1; for IC50 of DPPH radical scavenging activity: FIGS. 15A and 15B
Method: The antioxidant effect of synthesized taxifolin derivative was measured using a DPPH(1,1-diphenyl-2-picrylhydrazyl) radical (Blois M S. 1958. Antioxidant determination by the use of a stable free radical. Nature 25: 1199-1120). For measurement, different concentrations of 0.1 mL of the synthesized taxifolin derivatives were prepared and then mixed with 2.5 mL of ethanol. 0.5 mL of a 0.2 mM DPPH solution was added to the resulting mixture and reacted in the dark for one hour. Then, the absorbance of the reaction product was measured at 517 nm using a UV/Vis-spectrophotometer (BIO-RAD, USA). All tests were repeated three times, methanol was used as a blank sample and DPPH radical effect was calculated in accordance with the following Equation 1. DPPH radical scavenging activity was represented by IC50 (the concentration required for 50% inhibition). Scavenging effect (%)=(A−B)/A×100 [Equation 1]
where A=absorbance at 517 nm without test sample
where B=absorbance at 517 nm with test sample

[2] = FRAP assay (ferric reducing ability); format: biochemical; conditions: for FRAP value: 37° C. for 10 minutes, absorbance at 593 nm, FeSO4 calibration, ascorbic acid control at 1 mg/mL, Table 2
Method: FRAP assay of the samples was conducted by slightly modifying the method of Benzie and Strain (Benzie I F F, Strain J J. 1996. The ferric reducing ability of plasma (FRAP) as a measure of “Antioxidant power”: The FRAP assay. Anal Biochem 230: 70-79). The FRAP reagent was prepared by heating 25 mL acetate buffer (300 mM, pH 3.6) at 37′ C and adding a solution of 5 mL of 10 mM 2,4,6-tris(2-pyridyl)-s-triazine (TPTZ, Sigma) and 2.5 mL of 20 mM […] in 40 mM HCl thereto. 0.03 mL of the sample (Example 1 or Example 2) and 0.09 mL of distilled water were added to 0.9 mL of the prepared FRAP reagent, reaction was proceeded at 37° C. for 10 minutes and absorbance at 593 nm was measured using a spectrophotometer (Benchmark PLUS Bio-Rad). Distilled water, instead of the sample, was used as the blank. 1 mg/mL of ascorbic acid was used as a control group. A calibration equation for FeSO4 made by repetition at different concentrations of 0.125, 0.25, 0.5, 1 and 2 mM was obtained and measurement values of the samples were converted to FRAP values by applying the measurement values thereto. All measurements were repeated three times.

Row | SMILES | Antioxidative activity (IC50 mg/mL) [1] [mg/mL] | IC50 of DPPH radical scavenging activity [1] | IC50 of DPPH radical scavenging activity ([1]; listed as Example 2) | FRAP value [2] [mM] | FRAP value, ranking in words ([2]; FIG. 16, comparison among the samples)
1 | O=C(O)CCCC[C@@H]1CCSS1 (racemic) [Lipoic acid] | 515.77 ± 5.41 | about 250 mg/ml |  | 1.14 ± 0.019 | 
2 | O=C1O[C@H]([C@@H](O)CO)C(O)=C1O [Ascorbic acid, ascorbic acid] |  |  |  | 3.7 ± 0.007 | 
3 | CC1(C)SCCC(CCCCC(=O)O)S1 (stereo not drawn) [Lipoic acid (dithiol protection), 5-(2,2-dimethyl-1,3-dithian-4-yl)pentanoic acid] |  | about 2,000 mg/ml |  | 0.74 ± 0.006 | 

Further lines, with some results ahead:

Row | Antioxidative activity (IC50 mg/mL) [1] [mg/mL] | IC50 of DPPH radical scavenging activity [1] | IC50 of DPPH radical scavenging activity ([1]; listed as Example 2) | SMILES | FRAP value [2] [mM] | FRAP value, ranking in words ([2]; FIG. 16, comparison among the samples)
4 | 3.22 ± 0.05 |  |  | OCCCCCC1CCSS1 (stereo not drawn) [Lipoic alcohol] | 1.24 ± 0.007 | 
5 |  | 220 ± 3 µg/mL | very low IC50 | O=C(CCCCC1CCSS1)Oc1cc(OC(=O)CCCCC2CCSS2)c2c(c1)OC(c1ccc(OC(=O)CCCCC3CCSS3)c(OC(=O)CCCCC3CCSS3)c1)C(OC(=O)CCCCC1CCSS1)C2=O (stereo not drawn) [Taxifolin penta lipoate, 2-(3,4-bis(5-(1,2-dithiolan-3-yl)pentanoyloxy)phenyl)-4-oxochroman-3,5,7-triyl tris(5-(1,2-dithiolan-3-yl)pentanoate)] | 3.57 ± 0.146 | next highest value
